Assay results reported in patent US11091451B2, “SHMT inhibitors and uses thereof” (Raze Therapeutics, Inc., priority 2016, dated 2021).

Columns and labels:
[1] = biological target: human cytosolic Serine Hydroxymethyl transferase 1 (SHMT1) (Homo sapiens (Human), UniProt P34896); test: SHMT1 activity inhibition assay (serine production from glycine and CH2-THF, mass spectroscopy); assay type: biochemical; conditions: 60 minutes at room temperature
Description: (§1) Full length human cytosolic Serine Hydroxymethyl transferase 1 (SHMT1, residues 1-483 in Uniport ID P34896) was expressed as an N-terminal His6 tagged protein and purified in E. coli using nickel capture followed by size-exclusion chromatography. Human mitochondrial SHMT2 (residues 30-504 in Uniprot ID P34897) with mitochondrial leader sequence deleted was expressed as an N-terminal His6 tagged protein and purified in E. coli using nickel capture followed by size-exclusion chromatography.
(§2) Serine hydroxymethyltransferases catalyze the reversible hydroxymethylation of glycine to serine, with methylene tetrahydrofolate (CH2-THF) providing the additional carbon. SHMT1 and SHMT2 activity was determined by measuring serine production from glycine and CH2-THF using mass spectroscopy. Briefly, 15 ul of 0.5 mM glycine and 0.2 mM CH2-THF in 20 mM TEA, pH8.0, 0.2 mM NADPH were added to 384 well plate containing 0, 0.05 mM, 0.005 mM or 0.0005 mM of inhibitor. 15 ul of SHMT1 or 2 were added to initiate the reaction. The plate was incubated for 60 minutes at room temperature and the reaction was quenched by the addition of 30 ul of 10% trichloroacetic acid. Serine produced was analyzed using Rapidfire 360 and API4000^+ in the positive ion mode.

[2] = biological target: Human mitochondrial SHMT2 (Homo sapiens (Human), UniProt P34897); test: SHMT2 activity inhibition assay (serine production from glycine and CH2-THF, mass spectroscopy); assay type: biochemical; conditions: 60 minutes at room temperature
Description: as §1
as §2, with “15 ul of SHMT1 or 2 were added to initiate the reaction.” left out

Chain of human cytosolic Serine Hydroxymethyl transferase 1 (SHMT1) (P34896 whole entry, the tested form may be a part): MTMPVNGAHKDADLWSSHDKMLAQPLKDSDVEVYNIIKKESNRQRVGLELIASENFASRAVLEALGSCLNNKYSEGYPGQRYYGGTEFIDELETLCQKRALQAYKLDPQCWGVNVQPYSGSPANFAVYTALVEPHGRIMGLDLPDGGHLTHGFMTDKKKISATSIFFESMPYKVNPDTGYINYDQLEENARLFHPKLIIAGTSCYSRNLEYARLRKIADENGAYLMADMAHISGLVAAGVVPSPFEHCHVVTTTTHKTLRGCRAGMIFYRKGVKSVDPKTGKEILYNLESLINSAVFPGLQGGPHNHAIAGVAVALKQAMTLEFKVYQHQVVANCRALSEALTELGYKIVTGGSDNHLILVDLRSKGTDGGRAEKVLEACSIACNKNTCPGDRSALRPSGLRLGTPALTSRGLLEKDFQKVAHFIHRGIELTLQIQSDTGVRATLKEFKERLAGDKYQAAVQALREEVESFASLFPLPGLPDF
Chain of Human mitochondrial SHMT2 (P34897 30-504): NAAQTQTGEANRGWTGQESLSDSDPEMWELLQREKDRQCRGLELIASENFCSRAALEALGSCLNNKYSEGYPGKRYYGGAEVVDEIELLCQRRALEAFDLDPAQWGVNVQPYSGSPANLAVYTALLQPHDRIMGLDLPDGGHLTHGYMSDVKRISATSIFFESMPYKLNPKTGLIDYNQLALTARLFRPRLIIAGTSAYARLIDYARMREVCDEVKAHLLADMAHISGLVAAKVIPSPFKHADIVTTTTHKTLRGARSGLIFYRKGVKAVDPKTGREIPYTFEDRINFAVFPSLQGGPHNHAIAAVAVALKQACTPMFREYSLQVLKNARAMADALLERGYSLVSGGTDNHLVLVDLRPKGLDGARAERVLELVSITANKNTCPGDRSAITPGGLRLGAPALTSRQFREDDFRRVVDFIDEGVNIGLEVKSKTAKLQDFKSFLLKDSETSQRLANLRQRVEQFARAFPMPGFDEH

Structure (SMILES) | IC50 [1] [µM] | IC50 [2] [µM]
CC(C)(NC(=O)Cc1csc(-c2ccc(Cl)cc2-c2cccc(C#N)c2)n1)C(=O)O [Compound I-1, 2-[[2-[2-[4-Chloro-2-(3-cyanophenyl)phenyl]thiazol-4-yl]acetyl]amino]-2-methyl-propanoic Acid] | < 1 | < 1
CC(C)(NC(=O)Cc1csc(-c2ccc3c(c2-c2ccccc2)OCCO3)n1)C(=O)O [Compound I-2, 2-Methyl-2-[[2-[2-(5-phenyl-2,3-dihydro-1,4-benzodioxin-6-yl)thiazol-4-yl]acetyl]amino] propanoic Acid] | < 1 | 1 to 10
Cc1ccc(-c2cc(Cl)ccc2-c2cccc(CC(=O)NC(C)(C)C(=O)O)c2)cc1 [Compound I-3, 2-[[2-[3-[4-Chloro-2-(p-tolyl)phenyl]phenyl]acetyl]amino]-2-methyl-propanoic Acid] | < 1 | < 1
Cc1cccc(-c2cc(Cl)ccc2-c2nc(CC(=O)NC(C)(C)C(=O)O)cs2)c1 [Compound I-4] | < 1 | < 1
CC(C)(NC(=O)Cc1csc(-c2ccc(Cl)cc2-c2ccccc2)n1)C(=O)O [Compound I-5] | < 1 | < 1
CC(C)(NC(=O)Cc1csc(-c2ccc(Cl)cc2-c2cccc(Cl)c2)n1)C(=O)O [Compound I-6] | < 1 | < 1
CC(C)(NC(=O)Cc1csc(-c2ccc(Cl)cc2-c2cccc3c2COC3)n1)C(=O)O [Compound I-7] | < 1 | < 1
COc1cc(-c2nc(CC(=O)NC(C)(C)C(=O)O)cs2)c(-c2ccccc2)cc1Cl [Compound I-8, 2-[[2-[2-(4-chloro-5-methoxy-2-phenyl-phenyl)thiazol-4-yl]acetyl]amino]-2-methyl-propanoic Acid] | < 1 | < 1
Cc1cccc(-c2cc(Cl)ccc2-c2nc(CC(=O)NC(C)(C)C(=O)O)cs2)c1C [Compound I-9] | < 1 | < 1
CC(C)(NC(=O)Cc1csc(-c2ccc(Cl)cc2CC2CCC2)n1)C(=O)O [Compound I-10, 2-[[2-[2-[4-Chloro-2-(cyclobutylmethyl)phenyl]thiazol-4-yl]acetyl]amino]-2-methyl-propanoic Acid] | < 1 | < 1
CC(=O)N1CCC(c2cc(Cl)ccc2-c2nc(CC(=O)NC(C)(C)C(=O)O)cs2)CC1 [Compound I-11, 2-[[2-[2-[2-(1-Acetyl-4-piperidyl)-4-chloro-phenyl]thiazol-4-yl]acetyl]amino]-2-methyl-propanoic Acid] | 1 to 10 | < 1
CCc1cccc(-c2cc(Cl)ccc2-c2nc(CC(=O)NC(C)(C)C(=O)O)cs2)c1 [Compound I-12] | 1 to 10 | < 1
COc1ccc(-c2nc(CC(=O)NC(C)(C)C(=O)O)cs2)c(-c2ccccc2)c1 [Compound I-13, 2-[[2-[2-(4-Methoxy-2-phenyl-phenyl)thiazol-4-yl]acetyl]amino]-2-methyl-propanoic Acid] | 1 to 10 | 
CC(C)(NC(=O)Cc1csc(-c2ccc(Cl)cc2-c2cccc3c2CCC3)n1)C(=O)O [Compound I-14] | 1 to 10 | < 1
CC(C)(NC(=O)Cc1cccc(-c2ccc(Cl)cc2-c2ccc(F)cc2)c1)C(=O)O [Compound I-15, 2-[[2-[3-[4-Chloro-2-(4-fluorophenyl)phenyl]phenyl]acetyl]amino]-2-methyl-propanoic Acid] | 1 to 10 | < 1
CC(C)(NC(=O)Cc1csc(-c2ccc(Cl)cc2C2CCOCC2)n1)C(=O)O [Compound I-16, 2-[[2-[2-(4-Chloro-2-tetrahydropyran-4-yl-phenyl)thiazol-4-yl]acetyl]amino]-2-methyl-propanoic Acid] | 1 to 10 | < 1
CC(C)(NC(=O)Cc1cncc(-c2ccc(Cl)cc2-c2ccccc2)c1)C(=O)O [Compound I-17, 2-[[2-[5-(4-Chloro-2-phenyl-phenyl)-3-pyridyl]acetyl]amino]-2-methyl-propanoic Acid] | 1 to 10 | < 1
CC(C)(NC(=O)Cc1cccc(-c2ccc(Cl)cc2-c2ccccc2)n1)C(=O)O [Compound I-18] | 1 to 10 | < 1
CC(C)(NC(=O)Cc1cccc(-c2ccc(Cl)cc2-c2cccc(C(N)=O)c2)c1)C(=O)O [Compound I-19, 2-[[2-[3-[2-(3-Carbamoylphenyl)-4-chloro-phenyl]phenyl]acetyl]amino]-2-methyl-propanoic Acid] | 1 to 10 | < 1
CC(C)(NC(=O)Cc1ccnc(-c2ccc(Cl)cc2-c2ccccc2)c1)C(=O)O [Compound I-20] | 1 to 10 | 
CC(C)Cc1cc(Cl)ccc1-c1nc(CC(=O)NC(C)(C)C(=O)O)cs1 [Compound I-21] | 1 to 10 | < 1
CC(C)(NC(=O)Cc1cc(-c2ccc(Cl)cc2-c2ccccc2)ccn1)C(=O)O [Compound I-23] | 1 to 10 | 1 to 10

Second part, the compound after the results:

IC50 [1] [µM] | IC50 [2] [µM] | Structure (SMILES)
1 to 10 | < 1 | CC(C)(NC(=O)Cc1csc(-c2ccc(Cl)cc2Cl)n1)C(=O)O [Compound I-24]
1 to 10 | < 1 | CC(C)c1cc(Cl)ccc1-c1nc(CC(=O)NC(C)(C)C(=O)O)cs1 [Compound I-25]
10 to 100 | 1 to 10 | CC(C)(NC(=O)Cc1csc(-c2ccc(Cl)cc2C2CC2)n1)C(=O)O [Compound I-26]
10 to 100 | 1 to 10 | CCc1cc(Cl)ccc1-c1nc(CC(=O)NC(C)(C)C(=O)O)cs1 [Compound I-27]
10 to 100 | 1 to 10 | O=C(Cc1csc(-c2ccc(Cl)cc2Cl)n1)NC1(C(=O)O)CCC1 [Compound I-28]
10 to 100 | 1 to 10 | CC(C)(NC(=O)Cc1ccnc(-c2ccc(Cl)cc2-c2ccccc2)n1)C(=O)O [Compound I-29]
10 to 100 | 1 to 10 | CC(C)(NC(=O)Cc1cccc(-c2ccc(Cl)cc2)c1)C(=O)O [Compound I-30, 2-[2-[3-(4-chlorophenyl)phenyl]acetamido]-2-methylpropanoic Acid]
10 to 100 | 1 to 10 | CC(C)(NC(=O)Cc1csc(-c2ccc(Cl)cc2C2CCNCC2)n1)C(=O)O [Compound I-31, 2-[[2-[2-[4-Chloro-2-(4-piperidyl)phenyl]thiazol-4-yl]acetyl]amino]-2-methyl-propanoic Acid]
10 to 100 | 10 to 100 | CC[C@@H](C)[C@H](NC(=O)Cc1csc(-c2cccc(Cl)c2)n1)C(=O)O [Compound I-32]
10 to 100 | 1 to 10 | Cc1sc(-c2ccc(Cl)cc2Cl)nc1CC(=O)NC(C)(C)C(=O)O [Compound I-33]
10 to 100 | 10 to 100 | O=C(O)CNC(=O)Cc1csc(-c2ccc(Cl)cc2-c2ccccc2)n1 [Compound I-34, 2-[2-[2-(4-chloro-2-phenylphenyl)-1,3-thiazol-4-yl]acetamido]acetic Acid]
10 to 100 | 10 to 100 | C[C@H](NC(=O)Cc1csc(-c2ccc(Cl)cc2Cl)n1)C(=O)O [Compound I-35]
10 to 100 | 10 to 100 | O=C(O)CNC(=O)Cc1csc(-c2ccc(Cl)c(-c3ccccc3)c2)n1 [Compound I-36]
10 to 100 | 1 to 10 | O=C(Cc1csc(-c2ccc3c(c2)OCCO3)n1)NC1(C(=O)O)CCC1 [Compound I-37]
10 to 100 | 10 to 100 | CC(C(=O)NCC(=O)O)c1csc(-c2ccc(Cl)cc2Cl)n1 (stereo not drawn) [Compound I-38]
